Assay results taken from ChEMBL document CHEMBL3045804, “Synthesis and Herbicidal Activity of 2-Benzylamino-4-methyl-6-trifluoromethyl-1, 3, 5-triazune Derivatives” (J Pestic Sci, 1998).

What was measured:
Format in all cases: functional
[1] = system: Schoenoplectiella juncoides; assay: Herbicidal activity against Schoenoplectiella juncoides assessed as killing at 100 g/10 acre measured after 3 weeks by pre-emergence/paddy application test
[2] = system: Pontederia vaginalis; assay: Herbicidal activity against Monochoria vaginalis assessed as killing at 100 g/10 acre measured after 3 weeks by pre-emergence/paddy application test
[3] = system: Echinochloa oryzicola; assay: Herbicidal activity against Echinochloa oryzicola assessed as killing at 100 g/10 acre measured after 3 weeks by pre-emergence/paddy application test
[4] = system: Stellaria media; assay: Herbicidal activity against Stellaria media assessed as killing at 100 g/10 acre measured after 3 weeks by pre-emergence/field application test
[5] = system: Digitaria ciliaris; assay: Herbicidal activity against Digitaria ciliaris assessed as killing at 100 g/10 acre measured after 3 weeks by pre-emergence/field application test
[6] = system: Echinochloa crus-galli; assay: Herbicidal activity against Echinochloa crus-galli (barnyard grass) assessed as killing at 100 g/10 acre measured after 3 weeks by pre-emergence/field application test
[7] = system: Rotala indica; assay: Herbicidal activity against Rotala indica assessed as killing at 100 g/10 acre measured after 3 weeks by pre-emergence/paddy application test
[8] = system: Chenopodium album; assay: Herbicidal activity against Chenopodium album assessed as killing at 100 g/10 acre measured after 3 weeks by post-emergence/foliar application test
[9] = system: Stellaria media; assay: Herbicidal activity against Stellaria media assessed as killing at 100 g/10 acre measured after 3 weeks by post-emergence/foliar application test
[10] = system: Digitaria ciliaris; assay: Herbicidal activity against Digitaria ciliaris assessed as killing at 100 g/10 acre measured after 3 weeks by post-emergence/foliar application test
[11] = system: Echinochloa crus-galli; assay: Herbicidal activity against Echinochloa crus-galli (barnyard grass) assessed as killing at 100 g/10 acre measured after 3 weeks by post-emergence/foliar application test
[12] = system: Chenopodium album; assay: Herbicidal activity against Chenopodium album assessed as killing at 100 g/10 acre measured after 3 weeks by pre-emergence/field application test
[13] = system: Rotala indica; assay: Herbicidal activity against Rotala indica assessed as killing at 800 g/10 acre measured after 3 weeks by pre-emergence/paddy application test
[14] = system: Schoenoplectiella juncoides; assay: Herbicidal activity against Schoenoplectiella juncoides assessed as killing at 800 g/10 acre measured after 3 weeks by pre-emergence/paddy application test
[15] = system: Pontederia vaginalis; assay: Herbicidal activity against Monochoria vaginalis assessed as killing at 800 g/10 acre measured after 3 weeks by pre-emergence/paddy application test
[16] = system: Echinochloa oryzicola; assay: Herbicidal activity against Echinochloa oryzicola assessed as killing at 800 g/10 acre measured after 3 weeks by pre-emergence/paddy application test
[17] = system: Chenopodium album; assay: Herbicidal activity against Chenopodium album assessed as killing at 800 g/10 acre measured after 3 weeks by pre-emergence/field application test
[18] = system: Stellaria media; assay: Herbicidal activity against Stellaria media assessed as killing at 800 g/10 acre measured after 3 weeks by pre-emergence/field application test
[19] = system: Digitaria ciliaris; assay: Herbicidal activity against Digitaria ciliaris assessed as killing at 800 g/10 acre measured after 3 weeks by pre-emergence/field application test
[20] = system: Echinochloa crus-galli; assay: Herbicidal activity against Echinochloa crus-galli (barnyard grass) assessed as killing at 800 g/10 acre measured after 3 weeks by pre-emergence/field application test
[21] = system: Chenopodium album; assay: Herbicidal activity against Chenopodium album assessed as killing at 400 g/10 acre measured after 3 weeks by post-emergence/foliar application test
[22] = system: Stellaria media; assay: Herbicidal activity against Stellaria media assessed as killing at 400 g/10 acre measured after 3 weeks by post-emergence/foliar application test
[23] = system: Digitaria ciliaris; assay: Herbicidal activity against Digitaria ciliaris assessed as killing at 400 g/10 acre measured after 3 weeks by post-emergence/foliar application test
[24] = system: Echinochloa crus-galli; assay: Herbicidal activity against Echinochloa crus-galli (barnyard grass) assessed as killing at 400 g/10 acre measured after 3 weeks by post-emergence/foliar application test

Row | SMILES | Activity [1] [%] | Activity [2] [%] | Activity [3] [%] | Activity [5] [%] | Activity [6] [%] | Activity [9] [%] | Activity [10] [%] | Activity [11] [%] | Activity [12] [%] | Activity [13] [%] | Activity [14] [%] | Activity [15] [%] | Activity [16] [%] | Activity [17] [%] | Activity [18] [%] | Activity [19] [%] | Activity [20] [%] | Activity [21] [%] | Activity [23] [%] | Activity [24] [%] | other results
1 | Cc1ccc(CNc2nc(C)nc(C(F)(F)F)n2)cc1 | 0 | 26 | 51 | 1 | 76 | 100 | 0 | 1 | 91 | – | – | – | – | – | – | – | – | – | – | – | Activity [4]: 91%; Activity [7]: 76%; Activity [8]: 91%
2 | Cc1nc(NCc2ccccc2)nc(C(Cl)(Cl)Cl)n1 | – | – | – | – | – | – | – | – | – | 91 | 51 | 100 | 76 | 0 | 0 | 0 | 0 | 0 | 0 | 0 | Activity [22]: 0%
3 | Cc1nc(NCc2ccc(C(C)(C)C)cc2)nc(C(F)(F)F)n1 | 1 | 26 | 26 | 76 | 26 | 100 | 0 | 26 | 91 | – | – | – | – | – | – | – | – | – | – | – | Activity [4]: 91%; Activity [7]: 91%; Activity [8]: 76%
4 | Cc1nc(C)nc(NCc2ccccc2)n1 | – | – | – | – | – | – | – | – | – | 1 | 0 | 100 | 51 | 0 | 0 | 0 | 0 | 51 | 1 | 1 | –
5 | Cc1nc(NCc2ccc(F)cc2)nc(C(F)(F)F)n1 | 51 | 91 | 76 | 76 | 76 | 100 | 91 | 51 | 91 | – | – | – | – | – | – | – | – | – | – | – | Activity [4]: 100%; Activity [7]: 100%
6 | Cc1nc(NCCCc2ccccc2)nc(C(F)(F)F)n1 | – | – | – | – | – | – | – | – | – | 51 | 1 | 51 | 1 | 76 | 100 | 100 | 76 | 100 | 76 | 91 | –
7 | CCCc1nc(C)nc(NCc2ccccc2)n1 | – | – | – | – | – | – | – | – | – | 26 | 1 | 26 | 26 | 0 | 0 | 0 | 0 | 91 | 1 | 1 | –
8 | Cc1nc(NCc2ccc(Br)cc2)nc(C(F)(F)F)n1 | 76 | 91 | 51 | 91 | 76 | 100 | 100 | 26 | 100 | – | – | – | – | – | – | – | – | – | – | – | Activity [4]: 91%; Activity [7]: 100%; Activity [8]: 100%
9 | Cc1nc(NCc2cccc(Cl)c2)nc(C(F)(F)F)n1 | 51 | 51 | 51 | 51 | 1 | 100 | 91 | 51 | 76 | – | – | – | – | – | – | – | – | – | – | – | Activity [7]: 100%; Activity [8]: 100%
10 | COc1ccc(CNc2nc(C)nc(C(F)(F)F)n2)cc1 | 1 | 51 | 26 | 0 | 76 | 100 | 26 | 26 | 76 | – | – | – | – | – | – | – | – | – | – | – | Activity [4]: 91%; Activity [7]: 76%; Activity [8]: 100%
11 | CC(C)c1nc(NCc2ccccc2)nc(C(F)(F)F)n1 | – | – | – | – | – | – | – | – | – | 91 | 100 | 100 | 100 | 76 | 26 | 76 | 76 | 0 | 0 | 0 | Activity [22]: 0%
12 | CCc1nc(C)nc(NCc2ccccc2)n1 | – | – | – | – | – | – | – | – | – | 51 | 1 | 51 | 76 | 51 | – | 0 | 0 | – | – | – | –
13 | Cc1nc(NCc2ccccc2)nc(C(F)(F)F)n1 | – | – | – | – | – | – | – | – | – | 91 | 76 | 100 | 76 | – | 100 | 100 | 100 | 100 | 76 | 51 | –
14 | CCNc1nc(Cl)nc(NC(C)C)n1 [ATRAZINE] | – | – | – | – | – | 100 | 0 | 26 | – | – | – | – | – | – | – | – | – | – | – | – | Activity [8]: 100%
15 | CCNc1nc(Cl)nc(NCC)n1 [SIMAZINE] | – | – | – | 51 | 26 | – | – | – | 91 | – | – | – | – | – | – | – | – | – | – | – | Activity [4]: 91%
16 | Cc1nc(NCc2ccccc2Cl)nc(C(F)(F)F)n1 | 1 | 26 | 0 | 1 | 1 | 76 | 0 | 0 | 26 | – | – | – | – | – | – | – | – | – | – | – | Activity [4]: 76%; Activity [7]: 76%; Activity [8]: 26%
17 | c1ccc(CNc2ncncn2)cc1 | – | – | – | – | – | – | – | – | – | 0 | 0 | 0 | 0 | 0 | 0 | 0 | 0 | 0 | 0 | 0 | Activity [22]: 0%
18 | Cc1nc(NCc2ccc(Cl)cc2)nc(C(F)(F)F)n1 | 76 | 100 | 76 | 91 | 51 | 100 | 76 | 26 | 100 | – | – | – | – | – | – | – | – | – | – | – | Activity [4]: 91%; Activity [7]: 91%; Activity [8]: 100%
19 | Cc1nc(NCc2ccccc2)nc(-c2ccccc2)n1 | – | – | – | – | – | – | – | – | – | 0 | 0 | 0 | 0 | 0 | 0 | 0 | 0 | 0 | 0 | 0 | Activity [22]: 0%
20 | Cc1nc(NCc2ccc(C(F)(F)F)cc2)nc(C(F)(F)F)n1 | 51 | 76 | 51 | 100 | 76 | 100 | 100 | 1 | 91 | – | – | – | – | – | – | – | – | – | – | – | Activity [4]: 100%; Activity [7]: 91%; Activity [8]: 100%
21 | CCc1nc(NCc2ccccc2)nc(C(F)(F)F)n1 | – | – | – | – | – | – | – | – | – | 91 | 100 | 100 | 91 | – | 100 | 100 | 51 | 51 | 1 | 1 | –
22 | Cc1nc(NCCc2ccccc2)nc(C(F)(F)F)n1 | – | – | – | – | – | – | – | – | – | 91 | 26 | 76 | 26 | 91 | – | 76 | 51 | 91 | 0 | 0 | –
23 | Cc1ncnc(NCc2ccccc2)n1 | – | – | – | – | – | – | – | – | – | 0 | 0 | 0 | 51 | 0 | 0 | 0 | 0 | 0 | 0 | 0 | Activity [22]: 0%
